# Data reported in patent publication EP3563875A1, “RADIUM FOR RADIONUCLIDE THERAPY, IN COMBINATION WITH CALCIUM […] TREATMENT” (priority 2018, dated 2019).
# Columns and labels:
# [1] = Biodistribution and elimination of 223Ra in mice after i.v. administration; type: in vivo, female outbred CD1 mice
# Description: (§1) The study was performed in female outbred CD1 mice imported from Charles River breeds. Animals were housed in groups of five and acclimated over five days. After acclimatization, the animals were divided into four groups. The day before the experiment the feed was taken away and at the beginning of the experiment itself the animals were weighed and placed in cages individually on a nonwoven fabric. After administration of ^223Ra (ca 200 kBq/animal in 0.05 ml of physiological saline) through vena caudalis, excrements were collected after one and four hours; after 24 hours, five mice were sacrificed from each group, another five were sacrificed after 96 hours. Blood, heart, lung, liver, pancreas, spleen, kidney, urinary bladder, wall of the colon, colon content, stomach, stomach content, thyroid gland, brain, femur, ovaries, parts of skin and muscles, and excrements from each mouse were removed. The organs and excrements in the measuring vessels were weighed and measured in a well of NaI (T1) scintillation detector.
# Ten mice were medicated with CaCl2 in the concentration of 1.11 g/L for one week prior to administration of ^223Ra. The solution was used to feed per os ad libitum throughout the experiment. Table 3. Biodistribution of 223Ra with CaCl2
# 15 mice were pre-medicated with vitamin D3, 160 IU/mouse (0.02 mL of triglyceride oil solution of vitamin D3; 0.2 mg/ml) administered per os with part of the feed, three times a week for one week prior to administration of ^223Ra. Five of these mice were eliminated during the experiment because they refused vitamin intake. Table 4. Biodistribution of 223Ra with vitamin D3
# Ten mice were medicated with zoledronic acid; 0.1 mL preparation/mouse was taken from the 4 mg/100 mL infusion solution and administered subcutaneously twice a week for one week before administration of ^223Ra. Table 5. Biodistribution of 223Ra with zoledronic acid
# Ten mice were used as a control group. Table 6. Biodistribution of 223Ra
# (§2) Experimental layout was analogous to Example 1 or 2. In the mouse model, the animals were pre-medicated by oral administration of L-arginine for one week. L-arginine was added to the mouse food once a day. The day before administration of radium, Ca2^+ was administered orally in the form of a soluble salt. Subsequently, Ra-223 was administered intravenously as a solution of RaCl2 in physiological NaCl saline.
# Experimental layout was analogous to Example 3. In the mouse model, the animals were pre-medicated by subcutaneous injection of calcitonin for one week so that its serum concentration is about 5 nM. Two days before administration of Ra-223, Ca^2+ was administered orally in the form of a soluble salt. Subsequently, Ra-223 was administered intravenously as a solution.
# [2] = cited from earlier work
# [3] = intravenously or subcutaneously; cited from earlier work
# [4] = Biodistribution and elimination of 223Ra in mice after i.v. administration; type: in vivo, female outbred CD1 mice; conditions: one week pre-medication, oral soluble Ca2+ salt before Ra-223 i.v.; result in words
# Description: as §1, with “detector. […]” for “detector.”
# as §2, with “Subsequently, Ra-223 was administered intravenously as a solution of RaCl2 in physiological NaCl saline.” left out
compound,measurement,setting,value
"[Cl][223Ra][Cl] [223Ra, radium-223 dichloride]",Kidney %ID/g after 24 h,"[1]; 223Ra ca 200 kBq/animal i.v., kidney, 24 h",1.76 %ID/g
same,Kidney %ID/g after 96 h,"[1]; 223Ra ca 200 kBq/animal i.v., kidney, 96 h",0.32 %ID/g
same,Large intestine content %ID/g after 24 h,"[1]; 223Ra ca 200 kBq/animal i.v., large intestine content, 24 h",2.14 %ID/g
same,Large intestine content %ID/g after 96 h,"[1]; 223Ra ca 200 kBq/animal i.v., large intestine content, 96 h",0.27 %ID/g
same,Left femur %ID/g after 24 h,"[1]; 223Ra ca 200 kBq/animal i.v., left femur, 24 h",13.37 %ID/g
same,Left femur %ID/g after 96 h,"[1]; 223Ra ca 200 kBq/animal i.v., left femur, 96 h",10.33 %ID/g
same,Liver %ID/g after 24 h,"[1]; 223Ra ca 200 kBq/animal i.v., liver, 24 h",0.17 %ID/g
same,Liver %ID/g after 96 h,"[1]; 223Ra ca 200 kBq/animal i.v., liver, 96 h",0.10 %ID/g
same,Spleen %ID/g after 24 h,"[1]; 223Ra ca 200 kBq/animal i.v., spleen, 24 h",8.59 %ID/g
same,Spleen %ID/g after 96 h,"[1]; 223Ra ca 200 kBq/animal i.v., spleen, 96 h",6.77 %ID/g
same,Thyroid %ID/g after 24 h,"[1]; 223Ra ca 200 kBq/animal i.v., thyroid, 24 h",0.39 %ID/g
same,Thyroid %ID/g after 96 h,"[1]; 223Ra ca 200 kBq/animal i.v., thyroid, 96 h",0.07 %ID/g
same,In total after 24 h eliminated in excrements,"[1]; 223Ra in excrements, 24 h",33.54 ± 16.22 % ID
same,In total after 96 h eliminated in excrements,"[1]; 223Ra in excrements, 96 h",36.43 ± 12.31 % ID
same,In total after 24 h eliminated in urine,"[1]; 223Ra in urine, 24 h",16.24 ± 2.29 % ID
same,In total after 96 h eliminated in urine,"[1]; 223Ra in urine, 96 h",17.73 ± 2.34 % ID
same,activity in the blood,[2]; 24 hours after injection,less than one percent
same,administered activity remains in the blood,[2]; after four hours,approximately four percent
same,volume of distribution,[2]; after intravenous injection,higher than the blood volume
same,activity remains in the blood,[2]; fifteen minutes after the injection,about 20%
same,activity administered excreted from the body,"[2]; whole-body measurement seven days after injection, on average",76%
same,"uptake in other organs such as the heart, liver, kidney, urinary bladder, and spleen",[2]; within four hours after injection,No significant uptake
N=C(N)NCCC[C@H](N)C(=O)O [L-arginine],Ra uptake in the organism,"[1]; one week pre-medication, oral soluble Ca2+ salt before Ra-223 i.v., result in words",Ra uptake and resorption increased in the organism
O=P(O)(O)C(O)(Cn1ccnc1)P(=O)(O)O [zoledronic acid],NOAEL,[3],0.02 mg/kg/day
calcitonin,Ra uptake in the organism,[4],Ra-223 uptake increased in the organism
